Assay results as given in PubChem BioAssay (NCI).
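Following 48 hours of exposure in 96-well plates, responses at five concentrations were used to interpolate endpoints linearly. GI50 marks 50% less growth. TGI: concentration producing complete growth inhibition.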

Key:
Experiment in all cases: growth of human tumour cells (NCI), 48 h
[1] = test system: NCI/ADR-RES ovarian
[2] = test system: MDA-MB-231 breast
[3] = test system: SF-268 CNS
[4] = test system: HS 578T breast
[5] = test system: HCT-116 colon
[6] = test system: MOLT-4 leukemia
[7] = test system: UO-31 renal
[8] = test system: RXF 393 renal
[9] = test system: SF-539 CNS
[10] = test system: NCI-H226 lung

Compound	TGI [1] [µM]	TGI [2] [µM]	TGI [3] [µM]	TGI [4] [µM]	TGI [5] [µM]	TGI [6] [µM]	TGI [7] [µM]	TGI [8] [µM]	TGI [9] [µM]	TGI [10] [µM]	GI50 [2] [µM]	GI50 [3] [µM]	GI50 [4] [µM]	GI50 [6] [µM]	GI50 [7] [µM]	GI50 [8] [µM]	GI50 [10] [µM]	GI50 [1] [µM]	GI50 [5] [µM]	GI50 [9] [µM]
Cc1cc(-c2nc3ccc(F)cc3s2)ccc1NC(=O)C(N)CCCCN (configuration not stated)	34.1	23.1	19	27.1	10.3	7.94	16.1	25.3	7.75	24	–	–	–	–	–	–	–	–	–	–
NC1=Nc2ccccc2Sc2nccn21	72	35.9	88.4	79.1	> 100	49.4	63.9	56.5	56.1	48.1	–	–	–	–	–	–	–	–	–	–
CC1(C)C(CBr)=[N+]([O-])C(C)(C)N1O	> 10	> 10	> 10	> 10	5.27	> 7.43	> 10	8.15	> 7.83	> 10	–	–	–	–	–	–	–	–	–	–
Cc1ccc(F)c2[nH]c(-c3ccccc3)cc(=O)c12	> 100	> 100	> 67	> 100	> 100	> 100	> 50.1	21.5	28.5	> 100	–	–	–	–	–	–	–	–	–	–
O=S(=O)(O)c1ccc(N=Nc2ccc(N=Nc3c(O)ccc4ccc(S(=O)(=O)O)cc34)cc2)cc1	> 100	> 100	> 100	> 100	> 100	> 100	> 100	> 100	> 100	> 100	–	–	–	–	–	–	–	–	–	–
COC(=O)c1ccc(Oc2nc3ccc(C(F)(F)F)cc3nc2-c2ccccc2)cc1	> 100	> 100	> 100	> 100	> 100	> 100	> 100	> 100	> 100	> 100	–	–	–	–	–	–	–	–	–	–
COc1cc(/C=C2\N=C(c3ccccc3)N(c3nc4ccccc4s3)C2=O)cc(OC)c1OC	62	> 100	> 100	> 100	> 100	46.6	> 100	50.7	> 100	> 100	–	–	–	–	–	–	–	–	–	–
COC(Cc1cc(C(O)(c2ccc(C(C)(C)C)cc2)c2cc(CC(OC)(c3cc(C(OC)(c4ccc(C(C)(C)C)cc4)c4ccc(C(C)(C)C)cc4)c(C)cc3C)c3cc(C(OC)(c4ccc(C(C)(C)C)cc4)c4ccc(C(C)(C)C)cc4)c(C)cc3C)c(C)cc2C)c(C)cc1C)(c1cc(C(OC)(c2ccc(C(C)(C)C)cc2)c2ccc(C(C)(C)C)cc2)c(C)cc1C)c1cc(C(OC)(c2ccc(C(C)(C)C)cc2)c2ccc(C(C)(C)C)cc2)c(C)cc1C	> 75	> 75	> 75	> 75	> 75	> 75	> 75	> 75	> 75	> 75	–	–	–	–	–	–	–	–	–	–
CCN(CC)CCOCCOCC1(c2ccc(Cl)c(Cl)c2)CCCCC1	24.3	23	25.3	13.8	18.8	13.2	12.9	17.6	24.8	35.1	–	–	–	–	–	–	–	–	–	–
Cc1ccc2c(ccc3ncc(CNc4ccc(NS(C)(=O)=O)cc4)c32)[nH]1	> 100	74.5	52.5	59.9	37.9	44.7	74.7	21.7	50.5	55.6	–	–	–	–	–	–	–	–	–	–
CCOP(=O)(OCC)/C(=C\n1ccc(=O)[nH]c1=S)C(=O)OC	> 100	> 100	> 100	> 100	> 100	> 100	> 100	> 100	> 100	> 100	–	–	–	–	–	–	–	–	–	–
COc1ccc2c(c1)C(=O)c1c-2n(CCCN=[N+]=[N-])c(=O)c2cc([N+](=O)[O-])ccc12	> 100	> 100	–	> 100	9.11	–	2.22	–	–	0.874	33.3	< 0.001	16.2	< 0.001	< 0.001	0.00139	0.268	–	–	–
CCOc1cc2c(cc1O)C=C[C@@H]1[C@@H]2CC[C@]2(C)[C@@H](O)CC[C@@H]12	12.8	28.9	> 100	> 100	16	73.1	> 86.1	> 96.1	7.03	56.9	–	–	–	–	–	–	–	–	–	–
Cc1ccc(N2C=Nn3c(nc4sc5c(c4c3=O)CCCC5)C2)cc1	> 100	> 100	> 100	92	> 100	> 100	> 100	> 100	–	> 100	–	–	–	–	–	–	–	–	–	–
COc1ccccc1N1C(=O)CSC1c1cccc(Oc2ccccc2)c1 (configuration not stated)	46.2	32.4	36.3	44.5	31.5	64.8	32.9	33.6	31.6	36.9	–	–	–	–	–	–	–	–	–	–
CC(=O)OC(OC(C)=O)c1c2ccccc2cc2ccccc12	46.7	40.1	51.8	78.3	28.3	16.9	53	31	36.1	37.7	–	–	–	–	–	–	–	–	–	–
C[C@H](CCC(=O)O)[C@H]1CC[C@H]2[C@@H]3[C@H](O)[C@H](O)[C@@H]4C[C@H](O)CC[C@]4(C)[C@H]3CC[C@]12C	> 100	> 100	> 100	> 100	> 100	> 100	> 100	> 100	> 100	> 100	–	–	–	–	–	–	–	–	–	–
COc1cc(-c2n/c(=C\c3c(O)[nH]c4ccccc34)cc3c2=Nc2ccccc2-3)ccc1F	43	16.8	44.2	> 100	21.6	97.9	> 100	22.2	33.2	> 100	3.91	10.6	19.7	9.61	25.6	3.61	19.9	5.78	4.09	11.7
O=C(N/N=C\c1ccc(N(CCCl)CCCl)cc1)c1cccnc1	> 100	> 100	> 100	> 100	> 100	> 100	> 100	85.7	> 100	11.4	24.8	27	65.5	6.95	14.1	19.7	2.13	28.3	51	29.3

Compound	TGI [1] [µM]	TGI [2] [µM]	TGI [3] [µM]	TGI [4] [µM]	TGI [5] [µM]	TGI [6] [µM]	TGI [7] [µM]	TGI [8] [µM]	TGI [9] [µM]	TGI [10] [µM]	GI50 [2] [µM]	GI50 [3] [µM]	GI50 [4] [µM]	GI50 [6] [µM]	GI50 [7] [µM]	GI50 [8] [µM]	GI50 [10] [µM]	GI50 [1] [µM]	GI50 [5] [µM]	GI50 [9] [µM]
N#CC12CC(C=O)=C(N)C1(C#N)CC(C=O)=C2N (configuration not stated)	> 100	> 100	> 100	> 100	> 100	> 100	> 100	> 100	> 100	> 100	–	–	–	–	–	–	–	–	–	–
COc1cc(/C=C2\C(=O)Nc3ccc(Cl)cc32)cc(OC)c1OC	59.3	37.3	> 100	> 100	–	> 100	> 100	8.22	45.6	> 100	11.4	8.99	16.5	75.1	16	1.82	51.3	7.29	–	16.8
CCc1cc2c(cc1C(=O)CCC(=O)O)CC1(C2)Cc2cc(CC)c(C(=O)CCC(=O)O)cc2C1	> 100	> 100	> 100	> 100	> 100	> 100	> 100	> 100	> 100	> 100	–	–	–	–	–	–	–	–	–	–
CCOC(=O)C1=NN(c2ccc(C)cc2)C2(c3ccccc3)C=C(c3ccccc3)N(C)CCN12 (configuration not stated)	> 100	> 100	> 100	> 100	> 100	> 100	> 100	> 100	> 100	> 100	–	–	–	–	–	–	–	–	–	–
NS(=O)(=O)c1ccc(N=Nc2ccc(O)cc2)cc1	> 100	> 100	> 100	> 100	> 100	> 100	> 100	> 100	> 100	89.1	–	–	–	–	–	–	–	–	–	–
COC(=O)[C@H](Cc1ccccc1)NC(=O)OCC1OC(n2cc(C)c(=O)[nH]c2=O)CC1N=[N+]=[N-] (some centres not stated)	> 100	> 100	> 100	> 100	> 100	> 100	> 100	> 100	–	> 100	–	–	–	–	–	–	–	–	–	–
CC(=O)OCCCCn1nncc1Cn1ccc(=O)n(Cc2cnnn2CCCCOC(C)=O)c1=O	> 100	> 100	> 100	> 100	> 100	> 100	> 100	> 100	> 100	> 100	–	–	–	–	–	–	–	–	–	–
Fc1ccccc1-c1cc(=S)c2cc3c(cc2[nH]1)OCO3	63.2	> 100	> 100	> 100	> 100	> 25.1	> 100	> 100	> 89	> 100	–	–	–	–	–	–	–	–	–	–
Cc1cn(CCCCOC(=O)NC(CCCN=C(N)N)C(=O)O)c(=O)[nH]c1=O (configuration not stated)	> 100	> 100	> 100	> 100	> 100	> 100	> 100	> 100	> 100	> 100	–	–	–	–	–	–	–	–	–	–
CC(C)(C)OC(=O)NCC(c1c[nH]c2cc(Br)ccc12)c1c[nH]c2cc(Br)ccc12	35.9	32.4	31.7	46.4	31.4	> 100	34.5	32	38	34.5	–	–	–	–	–	–	–	–	–	–
COc1nc2ccc(Cl)c(C(O)c3ccccc3)c2nc1OC (configuration not stated)	63.4	39.9	84.5	38.9	32.7	46.4	> 100	41.3	32.8	54.7	–	–	–	–	–	–	–	–	–	–
COc1cc2c(c(OC)c1OC)-c1ccc(OC)c(=O)cc1C(NC(=O)CCCCCNc1ccc(N=[N+]=[N-])cc1[N+](=O)[O-])CC2 (configuration not stated)	5.62	< 0.01	10.3	4.67	< 0.0105	< 0.01	–	6.67	< 0.01	< 0.01	–	–	–	–	–	–	–	–	–	–
CSc1c(C(N)=S)c(N)nn1-c1ccccc1	> 100	> 100	> 100	> 100	> 100	> 100	> 100	> 100	> 100	> 100	–	–	–	–	–	–	–	–	–	–
CC12CP(=O)(O)CC1C2(Cl)Cl (configuration not stated)	> 100	> 100	> 100	> 100	> 100	> 100	> 100	> 100	> 100	> 100	–	–	–	–	–	–	–	–	–	–
CC1(C)CC[C@]2(C)[C@@H](O)C[C@]3(C)C(=CC[C@@H]4[C@@]5(C)CC[C@H](O)C(C)(C)[C@@H]5CC[C@]43C)[C@@H]2C1	> 100	48.6	> 100	99.3	> 100	> 100	> 100	22.4	–	> 100	–	–	–	–	–	–	–	–	–	–
C=CC(=C)CCC(Br)C(C)(C)Br (configuration not stated)	> 100	> 100	> 100	> 100	> 100	45.7	> 100	> 100	> 100	> 100	–	–	–	–	–	–	–	–	–	–
CN(CCO)CCC1COc2ccccc2O1 (configuration not stated)	> 10	> 10	> 10	> 10	> 10	> 10	> 10	> 10	> 10	> 10	–	–	–	–	–	–	–	–	–	–
Nc1nncc2n[nH]nc12	> 100	> 100	> 100	> 100	> 100	91	> 100	> 100	> 100	> 100	–	–	–	–	–	–	–	–	–	–
Cc1nc(-c2cccnc2)sc1C(=O)CC(=O)C(=O)Nc1cccc(NC(=O)C(=O)CC(=O)c2sc(-c3cccnc3)nc2C)n1	> 100	> 100	> 100	> 100	> 100	> 100	> 100	> 100	> 100	> 100	–	–	–	–	–	–	–	–	–	–
